Laboratory results as given in US9937192B2, “Combination therapy to treat mycobacterium diseases” (priority 2012, dated 2018).
Converted amounts (≈) assume the structure as drawn. Like-named read-outs stand apart in the source and are kept apart here.

What was measured:
M. kansasii = experiment: MIC in bacterial broth culture (7H9 with ADC, visual or resazurin); assay type: cell-based; conditions: Mycobacterium kansasii, Table 31, duplicate values
M. tuberculosis Erdman = experiment: MBC assay, log killing reduction in CFU over a one month period of incubation (Table 35); assay type: cell-based; conditions: Compound 23A at 4×MIC
[1] = tested on: intracellular M. tuberculosis in J774 cells; experiment: Efficacy against intracellular M. tuberculosis (luciferase) in J774 cells; assay type: cell-based
[2] = tested on: nonreplicating M. tuberculosis; experiment: Low-Oxygen-Recovery Assay (LORA) MIC; assay type: cell-based; conditions: Mycobacterium tuberculosis, read-out: LORA MIC
Text: MIC Determination in the Low-Oxygen-Recovery Assay (LORA) for Nonreplicating M. tuberculosis
Screening for new antimicrobial agents is routinely conducted only against actively replicating bacteria. However, it is now widely accepted that a physiological state of non-replicating persistence (NRP) is responsible for antimicrobial tolerance in many bacterial infections. In tuberculosis, the key to shortening the 6-month regimen lies in targeting this NRP subpopulation. […] Cho S H, Want S, Wan B, Hwang C H, Pauli G F, Franzblau S G; “Low-Oxygen-Recovery Assay for High-Throughput Screening of Compounds against Nonreplicating Mycobacterium tuberculosis” Antimicrob Agents Chemother. 2007 April; 51(4): 1380-1385 doi: 10.1128/AAC.00055-06.

[3] = tested on: Non-Replicating (NRP) M. tuberculosis H37Ra; experiment: Non-replicating (NRP) M. tuberculosis H37Ra (luciferase) culture assay; assay type: cell-based; conditions: Mycobacterium tuberculosis, 336 h, read on day 14
[4] = tested on: intracellular M. tuberculosis in THP-1 cells; experiment: microbe, parasite or virus in culture; assay type: cell-based; conditions: Mycobacterium tuberculosis, H37RA; for IC50: THP-1, 120 h, read-out: Mtb H37Ra in THP1 Cells (IC50); for MIC: read-out: MIC, Macrophage Cells
M. tuberculosis = experiment: microbe, parasite or virus in culture; assay type: cell-based
M. tuberculosis H37Rv [5] = conditions: cited from earlier work
M. tuberculosis H37Rv [6] = experiment: Monotherapy against established TB in mice (dose-ranging activity study); assay type: in vivo; conditions: BALB/c mice, M. tuberculosis H37Rv, 150 mg/kg daily 5 days per week
[7] = Rat IV Study (pharmacokinetics); conditions: male Sprague Dawley rats, plasma analyte = label
[8] = Oral Range Finding Toxicity and Toxicokinetic Study in Male Cynomolgus Monkeys; assay type: in vivo, Cynomolgus monkeys (Macaca Fascicularis)
Experimental: An Oral Range Finding Toxicity and Toxicokinetic Study in Male Cynomolgus Monkeys
The first day of dosing was designated as Day 1 of the study. The actual volume administered to each animal was calculated and adjusted based on the most recent body weight of each animal.
Cage-side clinical signs (ill health, behavioral changes etc.) were recorded at least once daily during the study.
Body weights were recorded for all animals prior to group assignment and on Days 1 (prior to dosing), 3 and 7 as well as terminally prior to necropsy (fasted).
Electrocardiograms (bipolar limb leads I, II and III, and augmented unipolar leads aVR, aVL and aVF) were obtained for all monkeys once during the pre-treatment period and again on Day 7 (post-dosing).
The tracings were assessed for gross changes indicative of cardiac electrical dysfunction. The potential presence of abnormalities involving heart rate (lead II), sinus and atrioventricular rhythm or conductivity were determined. Heart rate, PR interval, QRS duration, QT and QTc intervals values were measured.
A series of 7 blood samples (approximately 0.5 mL each) were collected from each monkey on Days 1 and 7 at the following time points: predose, 30 minutes and 2, 3, 6, 12 and 24 hours post-dose. For this purpose, each monkey was bled by venipuncture and the samples were collected into tubes containing the anticoagulant, K2EDTA. Tubes were placed on wet ice until ready for processing.
Laboratory investigations (hematology, coagulation, clinical chemistry and urinalysis) were performed on all animals prior to start of treatment and prior to termination on Day 8.
A necropsy with tissue collection was conducted on all animals terminated during the study. The necropsy included examination of: • carcass and muscular/skeletal system; • all external surfaces and orifices; • cranial cavity and external surface of the brain; • neck with associated organs and tissues; and • thoracic, abdominal, and pelvic cavities with their associated organs and tissues. All abnormalities were described and recorded.
For all animals, all tissues indicated above were embedded in paraffin, sectioned and stained with hematoxylin and eosin and examined by light microscopy.

Aqueous Solubility Study = assay type: physicochemical; conditions: water, aqueous buffer, thermodynamic from solid, crystalline solid form, pH >3.0, 96 hours at room temperature
Experimental: The aqueous solubilities of compound 23 and compound W were determined according to the following procedure.
Aqueous samples of each compound were prepared as follows. Compounds were weighed (20-30 mg compound) in 4 ml clear vials prior to adding water (0.5 mL) and stirring by magnetic stirrer. 1.0N HCl was added to the suspension to adjust the pH to the desired range. After stirring for 96 hours at room temperature, the suspension was filtered through a 0.22 micron filter (Millipore, Ultrafree centrifugal filters, Durapore PVDF 0.22 μm, Cat# UFC30GVNB). The filtrate was collected and the pH measured with a pH meter.
Standard solutions of each compound were prepared according to the following procedure. […]
Aliquots of each sample and each standard solution were analyzed by HPLC analysis (Agilent 1100, injection volume 10 μL, wavelength 271 nm, column XTerra® Phenyl 5 μm, 4.6×50 mm, Part No. 186001144, mobile phase: A: 0.1% TFA in water 0.1% TFA in AcN). […] Standard curves were obtained by plotting the average of the peak area from the HPLC versus the concentrations of the standard solutions (with appropriate corrections of the weights of the standards based on total water content of the solid as determined by elemental analysis). The concentration of each sample was calculated from the peak area of the aqueous sample from the HPLC results and the slope and intercept of the standard curves. […]

[9] = Mycobacterium tuberculosis, H37RA, read-out: MIC, Broth
[10] = Compound W dosed IV bolus 1 mg/kg in D5W
[11] = Compound W dosed IV bolus 5 mg/kg in D5W
[12] = doses up to 200 mg/kg/day for 7 days

SMILES: COc1c(N2C[C@@H]3CCCN[C@@H]3C2)c(F)cc2c(=O)c(C(=O)O)cn(C3CC3)c12 [Moxifloxacin, 1-cyclopropyl-7-[(1S,6S)-2,8-diazabicyclo [4.3.0]non-8-yl]-6-fluoro-8-methoxy-4-oxo-quinoline-3-carboxylic acid]
- MIC (M. kansasii; M. kansasii 303): 0.03 µg/mL (≈ 0.0747 µM)
- MIC (M. kansasii; M. kansasii 316): 0.03 µg/mL (≈ 0.0747 µM)
- MIC (M. kansasii; M. kansasii 379): 0.03 µg/mL (≈ 0.0747 µM)
- Log Reduction (cfu) (M. tuberculosis Erdman; day 0 of incubation): 0 Log
- Log Reduction (cfu) (M. tuberculosis Erdman; day 1 of incubation): 0.4 Log
- Log Reduction (cfu) (M. tuberculosis Erdman; day 2 of incubation): 1.6 Log
- Log Reduction (cfu) (M. tuberculosis Erdman; day 3 of incubation): 2.8 Log
- Log Reduction (cfu) (M. tuberculosis Erdman; day 7 of incubation): 2.2 Log
- Log Reduction (cfu) (M. tuberculosis Erdman; day 14 of incubation): 1.4 Log
- Log Reduction (cfu) (M. tuberculosis Erdman; day 21 of incubation): 0.0 Log
- Log Reduction (cfu) (M. tuberculosis Erdman; day 28 of incubation): 0.2 Log
- IC50 ([1]; Mycobacterium tuberculosis, J774, 120 h; read-out: Mtb CDC1551 in J774 Cells (IC50)): 0.21 µg/mL (≈ 0.523 µM)
- MIC [2]: > 40 µg/mL
- IC50 [3]: 6 µg/mL (≈ 14.9 µM)
- IC50 [4]: 0.33 µg/mL (≈ 0.822 µM)
- MIC [4]: 0.33 µg/mL (≈ 0.822 µM)
- MIC (M. tuberculosis; Mycobacterium tuberculosis, ERDMAN, Table 31, Mtb Erdman, duplicate values, read-out: MIC): 0.03 µg/mL (≈ 0.0747 µM)
- MIC (M. tuberculosis; Mycobacterium tuberculosis, ERDMAN, Table 32, M. tuberculosis Erdman, […], duplicate values, read-out: MIC): 0.03 µg/mL (≈ 0.0747 µM)
- MIC (M. tuberculosis; Mycobacterium tuberculosis, ERDMAN, Table 33, M. tuberculosis strain Erdman, read-out: MIC): 0.03 µg/mL (≈ 0.0747 µM)
- MIC (M. tuberculosis; Mycobacterium tuberculosis, GN9, Table 31, Mtb GN9, duplicate values, read-out: MIC): 0.03 µg/mL (≈ 0.0747 µM)
- MIC (M. tuberculosis; Mycobacterium tuberculosis, GN9, Table 33, M. tuberculosis strain GN9, read-out: MIC): 0.03 µg/mL (≈ 0.0747 µM)
- MIC (M. tuberculosis; [9]): 0.12 µg/mL (≈ 0.299 µM)
- MIC (M. tuberculosis; Mycobacterium tuberculosis, H37RV, Table 31, Mtb H37Rv, duplicate values, read-out: MIC): 0.03 µg/mL (≈ 0.0747 µM)
- MIC (M. tuberculosis; Mycobacterium tuberculosis, H37RV, Table 33, M. tuberculosis strain H37Rv, read-out: MIC): 0.06 µg/mL (≈ 0.149 µM)
- MIC (M. tuberculosis; Mycobacterium tuberculosis, Table 31, Mtb CDC1551, duplicate values, read-out: MIC): 0.015 µg/mL (≈ 0.0374 µM)
- MIC (M. tuberculosis; Mycobacterium tuberculosis, Table 31, Mtb HN878 (Beijing-Type), duplicate values, read-out: MIC): 0.03 µg/mL (≈ 0.0747 µM)
- MIC (M. tuberculosis; Mycobacterium tuberculosis, Table 32, […], duplicate values, read-out: MIC): 8 µg/mL (≈ 19.9 µM)
- MIC (M. tuberculosis; Mycobacterium tuberculosis, Table 33, M. tuberculosis strain 210, read-out: MIC): 0.015 µg/mL (≈ 0.0374 µM)
- MIC (M. tuberculosis; Mycobacterium tuberculosis, Table 33, M. tuberculosis strain AH13, read-out: MIC): 0.5 µg/mL (≈ 1.25 µM)
- MIC (M. tuberculosis; Mycobacterium tuberculosis, Table 33, M. tuberculosis strain AH517, read-out: MIC): 0.03 µg/mL (≈ 0.0747 µM)
- MIC (M. tuberculosis; Mycobacterium tuberculosis, Table 33, M. tuberculosis strain BW9, read-out: MIC): 0.008 µg/mL (≈ 0.0199 µM)
- MIC (M. tuberculosis; Mycobacterium tuberculosis, Table 33, M. tuberculosis strain C913, read-out: MIC): 0.03 µg/mL (≈ 0.0747 µM)
- MIC (M. tuberculosis; Mycobacterium tuberculosis, Table 33, M. tuberculosis strain CDC1551, read-out: MIC): 0.03 µg/mL (≈ 0.0747 µM)
- MIC (M. tuberculosis; Mycobacterium tuberculosis, Table 33, M. tuberculosis strain H10460, read-out: MIC): 0.25 µg/mL (≈ 0.623 µM)
- MIC (M. tuberculosis; Mycobacterium tuberculosis, Table 33, M. tuberculosis strain H13571, read-out: MIC): 0.03 µg/mL (≈ 0.0747 µM)
- MIC (M. tuberculosis; Mycobacterium tuberculosis, Table 33, M. tuberculosis strain HH915336, read-out: MIC): 0.015 µg/mL (≈ 0.0374 µM)
- MIC (M. tuberculosis; Mycobacterium tuberculosis, Table 33, M. tuberculosis strain LL, read-out: MIC): 0.015 µg/mL (≈ 0.0374 µM)
- MIC (M. tuberculosis; Mycobacterium tuberculosis, Table 33, M. tuberculosis strain MC19062, read-out: MIC): 0.015 µg/mL (≈ 0.0374 µM)
- MIC (M. tuberculosis; Mycobacterium tuberculosis, Table 33, M. tuberculosis strain Rv ATCC, read-out: MIC): 0.06 µg/mL (≈ 0.149 µM)
- MIC (M. tuberculosis; Mycobacterium tuberculosis, Table 33, M. tuberculosis strain W10, read-out: MIC): 0.03 µg/mL (≈ 0.0747 µM)
- MIC (M. tuberculosis; Mycobacterium tuberculosis, Table 33, M. tuberculosis strain W33, read-out: MIC): 0.5 µg/mL (≈ 1.25 µM)
- MIC (M. tuberculosis; Mycobacterium tuberculosis, Table 33, M. tuberculosis strain Wg565, read-out: MIC): 1 µg/mL (≈ 2.49 µM)
- MIC (M. tuberculosis; Table 31, Mtb GN9, duplicate values): 0.015 µg/mL (≈ 0.0374 µM)
- MIC (M. tuberculosis; Table 31, Mtb HN878 (Beijing-Type), duplicate values): 0.015 µg/mL (≈ 0.0374 µM)
- MIC (M. tuberculosis; Table 32, M. tuberculosis Erdman, […], duplicate values): 0.015 µg/mL (≈ 0.0374 µM)
- MIC (M. tuberculosis; Table 32, […], duplicate values): 4 µg/mL (≈ 9.96 µM)
- Erdman (MIC) (M. tuberculosis; Table 36, Mtb Erdman, unit inferred): 0.03 µg/mL

SMILES: COc1c(N2CCNC(C)C2)c(F)cc2c(=O)c(C(=O)O)cn(C3CC3)c12 (centres unmarked) [Gatifloxacin, 1-cyclopropyl-6-fluoro-8-methoxy-7-(3-methylpiperazin-1-yl)-4-oxo-quinoline-3-carboxylic acid]
- IC50 ([1]; Mycobacterium tuberculosis, J774, 120 h, read-out: Mtb CDC1551 in J774 Cells (IC50)): 0.94 µg/mL (≈ 2.5 µM)
- MIC [2]: 3.6 µg/mL (≈ 9.59 µM)
- IC50 [4]: 0.2 µg/mL (≈ 0.533 µM)
- Erdman (MIC) (M. tuberculosis): 0.25 µg/mL

SMILES: NC(=O)c1cnccn1 [Pyrazinamide, pyrazine-2-carboxamide]
- MIC (M. tuberculosis H37Rv [5]; M. tuberculosis H37Rv, normal pH): 250 µg/mL (≈ 2030 µM)
- MIC (M. tuberculosis H37Rv [5]; pH 6.0): 50 µg/mL (≈ 406 µM)
- Log cfu (lung) (M. tuberculosis H37Rv [6]; 4 weeks of treatment): 4.22
- Log Reduction (M. tuberculosis H37Rv [6]; 4 weeks, vs untreated control): 1.78
- MIC [4]: > 2.5 µg/mL
- MIC (M. tuberculosis; [9]): > 12.3 µg/mL

SMILES: CCNC(=O)Nc1nc2cc(-c3cnc(C(C)(C)O)nc3)c(F)c([C@H]3CCCO3)c2[nH]1 [Compound 23, 1-ethyl-3-[6-fluoro-5-[2-(1-hydroxy-1-methyl-ethyl)pyrimidin-5-yl]-7-[(2R)-tetrahydrofuran-2-yl]-1H-benzimidazol-2-yl]urea]
- AUCextrap [7, 10]: 310 ng·h/mL
- Cl_obs [7, 10]: 54.9 mL/min/kg
- Vss_obs [7, 10]: 3.8 L/kg
- AUCextrap [7, 11]: 3060 ng·h/mL
- Cl_obs [7, 11]: 27.3 mL/min/kg
- Vss_obs [7, 11]: 4.08 L/kg
- clinical signs, body weights, electrocardiography, clinical pathology, organ weights [8, 12]: no clinical signs, or changes in body weights, electrocardiography parameters, clinical pathology parameters, or organ weights
- macroscopic or microscopic findings [8, 12]: no macroscopic or microscopic findings
- no observed effect level (NOEL) ([8]; oral gavage once per day for 7 days): 200 mg/kg/day
- exposures for different dosage levels ([8]; toxicokinetics): dose related
- solubility at 96 h (Aqueous Solubility Study): < 1 µg/mL
